Assay results taken from PubChem BioAssay (NCI).
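In this assay, cells in 96-well plates receive the compound at five concentrations for 48 hours. Endpoints are linearly interpolated between the surrounding concentrations. Abbreviation: GI50, concentration required for 50% inhibition of growth. TGI: total growth inhibition.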

Columns and labels:
Assay in all cases: NCI tumour cell line growth inhibition, 48 h
DU-145 prostate = system: DU-145 prostate
CCRF-CEM leukemia = system: CCRF-CEM leukemia
HL-60(TB) leukemia = system: HL-60(TB) leukemia
RXF 393 renal = system: RXF 393 renal
SF-539 CNS = system: SF-539 CNS
T-47D breast = system: T-47D breast
K-562 leukemia = system: K-562 leukemia
SW-620 colon = system: SW-620 colon
U251 CNS = system: U251 CNS
OVCAR-5 ovarian = system: OVCAR-5 ovarian
LOX IMVI melanoma = system: LOX IMVI melanoma
CAKI-1 renal = system: CAKI-1 renal
HCT-116 colon = system: HCT-116 colon
NCI-H23 lung = system: NCI-H23 lung
SR leukemia = system: SR leukemia
MDA-MB-435 = system: MDA-MB-435
ACHN renal = system: ACHN renal
RPMI-8226 leukemia = system: RPMI-8226 leukemia
A549 NSCLC = system: A549 NSCLC
KM12 colon = system: KM12 colon
SK-MEL-5 melanoma = system: SK-MEL-5 melanoma
SNB-19 CNS = system: SNB-19 CNS
COLO 205 colon = system: COLO 205 colon
NCI/ADR-RES ovarian = system: NCI/ADR-RES ovarian
SNB-75 CNS = system: SNB-75 CNS
EKVX NSCLC = system: EKVX NSCLC
MOLT-4 leukemia = system: MOLT-4 leukemia
UACC-257 melanoma = system: UACC-257 melanoma
A498 renal = system: A498 renal
SF-295 CNS = system: SF-295 CNS
NCI-H226 lung = system: NCI-H226 lung
HOP-92 NSCLC = system: HOP-92 NSCLC
HCT-15 colon = system: HCT-15 colon
NCI-H522 lung = system: NCI-H522 lung
SN12C renal = system: SN12C renal
NCI-H460 lung = system: NCI-H460 lung
M14 melanoma = system: M14 melanoma
SK-MEL-28 melanoma = system: SK-MEL-28 melanoma
TK-10 renal = system: TK-10 renal
BT-549 breast = system: BT-549 breast
HT29 colon = system: HT29 colon
PC-3 prostate = system: PC-3 prostate
IGROV1 ovarian = system: IGROV1 ovarian
MCF7 breast = system: MCF7 breast
OVCAR-8 ovarian = system: OVCAR-8 ovarian
HCC-2998 colon = system: HCC-2998 colon
MDA-MB-231 breast = system: MDA-MB-231 breast
UO-31 renal = system: UO-31 renal
OVCAR-3 ovarian = system: OVCAR-3 ovarian
SF-268 CNS = system: SF-268 CNS
HS 578T breast = system: HS 578T breast
HOP-62 NSCLC = system: HOP-62 NSCLC
OVCAR-4 ovarian = system: OVCAR-4 ovarian
SK-MEL-2 melanoma = system: SK-MEL-2 melanoma
786-0 renal = system: 786-0 renal
SK-OV-3 ovarian = system: SK-OV-3 ovarian
MALME-3M melanoma = system: MALME-3M melanoma

## O=C(/C=C/c1c(-c2ccccc2)[nH]c2ccccc12)S(=O)(=O)c1ccccc1
DU-145 prostate
  GI50: 7.54 µM
  TGI: > 100 µM
CCRF-CEM leukemia
  GI50: 5.41 µM
  TGI: > 100 µM
HL-60(TB) leukemia
  GI50: 5.6 µM
  TGI: 98.7 µM
RXF 393 renal
  GI50: 9.34 µM
  TGI: 67.1 µM
SF-539 CNS
  GI50: 17.5 µM
  TGI: > 100 µM
T-47D breast
  GI50: 2.5 µM
  TGI: > 100 µM
K-562 leukemia
  GI50: 3.7 µM
  TGI: > 100 µM
SW-620 colon
  GI50: 5.1 µM
  TGI: > 100 µM
U251 CNS
  GI50: 40.3 µM
  TGI: > 100 µM
OVCAR-5 ovarian
  GI50: > 100 µM
  TGI: > 100 µM
LOX IMVI melanoma
  GI50: > 100 µM
  TGI: > 100 µM
CAKI-1 renal
  GI50: 6.42 µM
  TGI: > 100 µM
HCT-116 colon
  GI50: 4.81 µM
  TGI: > 100 µM
NCI-H23 lung
  GI50: 13.6 µM
  TGI: > 100 µM
SR leukemia
  GI50: 2.42 µM
  TGI: 6.72 µM
MDA-MB-435
  GI50: 1.73 µM
  TGI: 5.07 µM
ACHN renal
  GI50: 39.8 µM
  TGI: > 100 µM
RPMI-8226 leukemia
  GI50: 13.3 µM
  TGI: > 100 µM
A549 NSCLC
  GI50: 24.9 µM
  TGI: > 100 µM
KM12 colon
  GI50: 2.03 µM
  TGI: > 100 µM
SK-MEL-5 melanoma
  GI50: 4.38 µM
  TGI: > 100 µM
SNB-19 CNS
  GI50: 35.7 µM
  TGI: > 100 µM
COLO 205 colon
  GI50: 6 µM
  TGI: > 100 µM
NCI/ADR-RES ovarian
  GI50: 3.19 µM
  TGI: 53.6 µM
SNB-75 CNS
  GI50: 3.96 µM
  TGI: > 100 µM
EKVX NSCLC
  GI50: 4.37 µM
  TGI: > 100 µM
MOLT-4 leukemia
  GI50: 4.78 µM
  TGI: > 100 µM
UACC-257 melanoma
  GI50: > 100 µM
  TGI: > 100 µM
A498 renal
  GI50: 2.2 µM
  TGI: 87.8 µM
SF-295 CNS
  GI50: 0.818 µM
  TGI: > 100 µM
NCI-H226 lung
  GI50: > 100 µM
  TGI: > 100 µM
HOP-92 NSCLC
  GI50: 16.3 µM
  TGI: > 100 µM
HCT-15 colon
  GI50: 6.42 µM
  TGI: > 100 µM
NCI-H522 lung
  GI50: 6.11 µM
  TGI: > 100 µM
SN12C renal
  GI50: > 100 µM
  TGI: > 100 µM
NCI-H460 lung
  GI50: 3.7 µM
  TGI: > 100 µM
M14 melanoma
  GI50: 5.86 µM
  TGI: > 100 µM
SK-MEL-28 melanoma
  GI50: 27.1 µM
  TGI: > 100 µM
TK-10 renal
  GI50: 74 µM
  TGI: > 100 µM
BT-549 breast
  GI50: 5.33 µM
  TGI: > 100 µM
HT29 colon
  GI50: 3.76 µM
  TGI: > 100 µM
PC-3 prostate
  GI50: 8.15 µM
  TGI: > 100 µM
IGROV1 ovarian
  GI50: 24.3 µM
  TGI: > 100 µM
MCF7 breast
  GI50: 3.09 µM
  TGI: > 100 µM
OVCAR-8 ovarian
  GI50: 53.6 µM
  TGI: > 100 µM
HCC-2998 colon
  GI50: 17.5 µM
  TGI: > 100 µM
MDA-MB-231 breast
  GI50: 16.6 µM
  TGI: > 100 µM
UO-31 renal
  GI50: > 100 µM
  TGI: > 100 µM
OVCAR-3 ovarian
  GI50: 4.23 µM
  TGI: > 100 µM
SF-268 CNS
  GI50: 6.24 µM
  TGI: > 100 µM
HS 578T breast
  GI50: 10.1 µM
  TGI: > 100 µM
HOP-62 NSCLC
  GI50: 29.9 µM
  TGI: > 100 µM
OVCAR-4 ovarian
  GI50: 4.48 µM
  TGI: > 100 µM
SK-MEL-2 melanoma
  GI50: 78.6 µM
  TGI: > 100 µM
786-0 renal
  GI50: 52.6 µM
  TGI: > 100 µM
SK-OV-3 ovarian
  GI50: 23.5 µM
  TGI: > 100 µM
MALME-3M melanoma
  GI50: 8.11 µM
  TGI: > 100 µM
